We go through 5 molecules from US10906915B2, “Substituted pyrazoloazepin-4-ones and their use as phosphodiesterase inhibitors” (LEO Pharma A/S, priority 2016, dated 2021).

Sequence of human PDE4D catalytic domain (Q08499 380-740 limits assumed): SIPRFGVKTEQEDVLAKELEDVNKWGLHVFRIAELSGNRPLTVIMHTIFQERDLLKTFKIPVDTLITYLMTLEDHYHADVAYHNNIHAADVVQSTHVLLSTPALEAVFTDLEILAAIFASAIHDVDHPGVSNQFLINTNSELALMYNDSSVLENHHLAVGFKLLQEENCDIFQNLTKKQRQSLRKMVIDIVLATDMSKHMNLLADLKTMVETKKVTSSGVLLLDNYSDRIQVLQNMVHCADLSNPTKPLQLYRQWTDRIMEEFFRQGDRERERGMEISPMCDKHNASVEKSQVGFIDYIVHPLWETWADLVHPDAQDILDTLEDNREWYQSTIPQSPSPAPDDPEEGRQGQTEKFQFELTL

This assay concerns the target human PDE4D catalytic domain (UniProt no. Q08499) (Homo sapiens (Human), UniProt Q08499). Kind of assay: PDE4 assay (TR-FRET, FAM-cAMP cleavage). The conditions noted are these: read-out: PDE4 IC50 range. Type of assay: biochemical. The gist of the method:
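PDE4D catalytic domain ([…]) was incubated with unlabelled cAMP plus FAM-cAMP and titrated compound, stopped with binding buffer of metal-ion nanoparticles and Tb donor. AMP generation read by TR-FRET; IC50 as 50% inhibition of cleavage versus controls, reported as nM ranges.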
Take `CCc1nn(CCCCOC(=O)c2ccc(S(=O)(=O)N3CCCC3)cc2)c2c1C(=O)NCC1(CCOCC1)C2` [Example 377, 4-(3-ethyl-4-oxo-spiro[6,8-dihydro-5H-pyrazolo[4,3-c]azepme-7,4′-tetrahydropyran]-1-yl)butyl 4-pyrrolidin-1-ylsulfonylbenzoate]: the IC50 lay within 100 to 500 nM.

Turning to `CCc1nn(CCCCOC(=O)c2ccc(S(=O)(=O)N3CCOCC3)cc2)c2c1C(=O)NCC1(CCOCC1)C2` [Example 378, 4-(3-ethyl-4-oxo-spiro[6,8-dihydro-5H-pyrazolo[4,3-c]azepine-7,4′-telrahydropyran]-1-yl)butyl 4-morpholinosulfonylbenzoate], the IC50 is 100 to 500 nM.

`CCc1nn(CCCCOC(=O)c2ccc(C(=O)NC)cc2)c2c1C(=O)NCC1(CCOCC1)C2` [Example 379, 4-(3-ethyl-4-oxo-spiro[6,8-dihydro-5H-pyrazolo[4,3-c]azepine-7,4′-tetrahydropyran]-1-yl)butyl 4-(methylcarbamoyl)benzoate]: the half-maximal inhibitory concentration (IC50) was 100 to 500 nM.

As to `CCc1nn(CCCCOC(=O)c2ccc(C(=O)N(C)C)cc2)c2c1C(=O)NCC1(CCOCC1)C2` [Example 380, 4-(3-ethyl-4-oxo-spiro[6,8-dihydro-5H-pyrazolo[4,3-c]azepine-7,4′-tetrahydropyran]-1-yl)butyl 4-(dimethylcarbamoyl)benzoate], the IC50 lay within 100 to 500 nM.

For `CCc1nn(CCCCOC(=O)c2ccc(C(=O)N3CCOCC3)cc2)c2c1C(=O)NCC1(CCOCC1)C2` [Example 381, 4-(3-ethyl-4-oxo-spiro[6,8-dihydro-5H-pyrazolo[4,3-c]azepine-7,4′-tetrahydropyran]-1-yl)butyl 4-(morpholine-4-carbonyl)benzoate], the half-inhibitory concentration (IC50) lay in the range of 100 to 500 nM.
